Values after ≈ are worked out from the molar mass of the structure shown. Read-outs that look alike come from different tables or passages of the source.
Key:
Format in all cases: cell-based
Proteus 1017 = assay: Agar dilution test, DST medium; details: 1-2 × 10^3 germs/plate
Text: (§2) DST (dexhase sensitivity test) medium; 1-2 × 10^3 germs/plate

Klebsiella 8085 = assay: Agar dilution test, DST medium; details: 1-2 × 10^3 germs/plate
Text: as §2

E. coli A 261 = assay: Agar dilution test, DST medium; details: 1-2 × 10^3 germs/plate
Text: as §2

E. coli Neum. = assay: Agar dilution test, DST medium; details: 1-2 × 10^3 germs/plate
Text: as §2

[1] = tested on: Staphylococcus aureus 133; assay: Agar dilution test, DST medium; details: 1-2 × 10^3 germs/plate
Text: as §2

Pseudomonas aeruginasa = assay: Agar dilution test, DST medium; details: 1-2 × 10^3 germs/plate
Text: as §2

Salmonella 683 = assay: Agar dilution test, Denley multipoint inoculation method; details: read-out: Minimum inhibitory concentrations in an agar dilution test
Text: (§1) | ^x Denley multipoint inoculation method

Escherichia coli 103400 = assay: as above
Text: as §1

Pseudomonas 7167 = assay: as above; details: read-out: Minimum inhibitory concentrations in an agar dilution test
Text: as §1

Escherichia coli 455/7 = assay: as above
Text: as §1

Escherichia coli T 7 = assay: as above; details: T7, read-out: Minimum inhibitory concentrations in an agar dilution test
Text: as §1

Proteus 8228 = assay: as above; details: read-out: Minimum inhibitory concentrations in an agar dilution test
Text: as §1

Klebsiella 63 = assay: as above
Text: as §1

[2] = Escherichia coli 103400, Denley multipoint inoculation method, read-out: Minimum inhibitory concentrations in an agar dilution test
[3] = Escherichia coli 455/7, Denley multipoint inoculation method, read-out: Minimum inhibitory concentrations in an agar dilution test
[4] = Proteus 8228, Denley multipoint inoculation method
[5] = Klebsiella 63, Denley multipoint inoculation method, read-out: Minimum inhibitory concentrations in an agar dilution test

SMILES: O=C(O)c1cn(C2CC2)c2cc(N3CCNCC3)ncc2c1=O
- antibacterial action in agar dilution test (Proteus 1017): 0.5
- antibacterial action in agar dilution test (Klebsiella 8085): 1
- antibacterial action in agar dilution test (E. coli A 261): 1
- antibacterial action in agar dilution test (E. coli Neum.): 1
- antibacterial action in agar dilution test [1]: 8
- antibacterial action in agar dilution test (Pseudomonas aeruginasa): 4

SMILES: CCn1cc(C(=O)O)c(=O)c2cc(F)c(N3CCNCC3)cc21
- antibacterial action in agar dilution test (Proteus 1017): 0.06
- antibacterial action in agar dilution test (Klebsiella 8085): 0.25
- antibacterial action in agar dilution test (E. coli A 261): 0.125
- antibacterial action in agar dilution test (E. coli Neum.): 0.25
- antibacterial action in agar dilution test [1]: 1
- antibacterial action in agar dilution test (Pseudomonas aeruginasa): 1

SMILES: O=C(O)c1cn(C2CC2)c2cc(N3CCNCC3)c(F)cc2c1=O [1-cyclopropyl-6-fluoro-1,4-dihydro-4-oxo-7-piperazino-quinoline-3-carboxylic acid]
- antibacterial action in agar dilution test (Proteus 1017): 0.03
- antibacterial action in agar dilution test (Klebsiella 8085): 0.06
- antibacterial action in agar dilution test (E. coli A 261): 0.06
- antibacterial action in agar dilution test (E. coli Neum.): 0.06
- antibacterial action in agar dilution test [1]: 0.25-0.5
- antibacterial action in agar dilution test (Pseudomonas aeruginasa): 0.5

SMILES: CN1CCN(c2cc3c(cn2)c(=O)c(C(=O)O)cn3C2CC2)CC1 [Example 1, 7-(4-Methylpiperazino)-1-cyclopropyl-4-oxo-1,4-dihydro-1,6-naphthyridine-3-carboxylic acid]
- MIC (Salmonella 683): 0.5 µg/mL (≈ 1.52 µM)
- MIC (Escherichia coli 103400; [2]): 0.25 µg/mL (≈ 0.761 µM)
- MIC (Pseudomonas 7167): 8 µg/mL (≈ 24.4 µM)
- MIC (Escherichia coli 455/7; [3]): 128 µg/mL (≈ 390 µM)
- MIC (Escherichia coli T 7): 0.25 µg/mL (≈ 0.761 µM)
- MIC (Proteus 8228; [4]): 2 µg/mL (≈ 6.09 µM)
- MIC (Klebsiella 63; [5]): 1 µg/mL (≈ 3.05 µM)

SMILES: CCn1cc(C(=O)O)c(=O)c2ccc(C)nc21 [Nalidixic acid, 1-ethyl-7-methyl-1,8-naphthyrid-4-one-3-carboxylic acid]
- MIC (Salmonella 683): 4 µg/mL (≈ 17.2 µM)
- MIC (Escherichia coli 103400; Escherichia coli, 103400, read-out: Minimum inhibitory concentrations in an agar dilution test): 2 µg/mL (≈ 8.61 µM)
- MIC (Pseudomonas 7167): 64 µg/mL (≈ 276 µM)
- MIC (Escherichia coli 455/7; Escherichia coli, 455/7, read-out: Minimum inhibitory concentrations in an agar dilution test): 256 µg/mL (≈ 1100 µM)
- MIC (Escherichia coli T 7): 1 µg/mL (≈ 4.31 µM)
- MIC (Proteus 8228): 8 µg/mL (≈ 34.4 µM)
- MIC (Klebsiella 63; Klebsiella, 63, read-out: Minimum inhibitory concentrations in an agar dilution test): 4 µg/mL (≈ 17.2 µM)

SMILES: CCn1cc(C(=O)O)c(=O)c2cnc(N3CCNCC3)nc21 [Pipemidic acid, 2-piperazino-8-ethyl-5-oxo-5,8-dihydropyrido 2,3-d pyrimidine-6-carboxylicacid]
- MIC (Salmonella 683): 2 µg/mL (≈ 6.59 µM)
- MIC (Escherichia coli 103400; [2]): 1 µg/mL (≈ 3.3 µM)
- MIC (Pseudomonas 7167): 16 µg/mL (≈ 52.7 µM)
- MIC (Escherichia coli 455/7; [3]): 128 µg/mL (≈ 422 µM)
- MIC (Escherichia coli T 7): 2 µg/mL (≈ 6.59 µM)
- MIC (Proteus 8228; [4]): 4 µg/mL (≈ 13.2 µM)
- MIC (Klebsiella 63; [5]): 2 µg/mL (≈ 6.59 µM)
